Experimental data from patent US6410535B1, “Prophylactic or therapeutic agents for diseases having vascular dysfunction associated with insulin resistance” (Suntory Limited, priority 1998, dated 2002).
Structures can show the parent of a compound that is named as a salt.

What was measured:
[1] = as reported in Japanese Patent Public Disclosure No. 25323/84; cited from earlier work
[2] = rat, in vivo, po
[3] = test system: thoracic aorta tissue sections; assay: Superoxide anion (O2−) production level in thoracic aorta tissue sections, lucigenin-enhanced chemiluminescence; assay type: in vivo, Sprague-Dawley rats; conditions: for O2− production level, Average: 10 mg BH4 dihydrochloride/kg/day oral, 8 weeks
Description: (§1) Male Sprague-Dawley rats (150 g, supplied from Charles River) were used to prepare a model group with insulin resistance induced by fructose feed loading (hereinafter referred to as “FR group”) according to the procedure described by Hwang et al. (Hwang, I-H. et al., Hypertension 10:512, 1987). A control group grown with a starch feed (hereinafter referred to as “CTR group”) was also prepared (FR group: n=16; CTR group: n=16). FR group received a feed containing 67% (hereinafter meaning % by weight) carbohydrate (containing 98% fructose available from Oriental Yeast Co., Ltd.), 13% fat and 20% protein, while CTR group received a feed containing 58% carbohydrate, 12% fat and […]. […] After 8 weeks, the thoracic aorta was collected. For each group, endothelium-separated sections (EC (−)) and non-separated sections (EC (+)) were prepared and examined for superoxide anion (O2^−) production level, endothelial NOS (eNOS) activity and endothelium-dependent vasorelaxation.
(§2) Group-to-group statistic analyses were made by one-way ANOVA, with the significance level being p<0.05. Multiple comparison was made by Bonferronl/Dunn, with the significance level being p<0.05.
Measurement of O2^− production level was made by the lucigenin-enhanced chemiluminescence method (Ohara et al., J. Clin. Invest. 91: 2546, 1993).

[4] = test system: thoracic aorta sections; assay: Endothelium-dependent vasorelaxation induced by acetylcholine, isometric tensiometry; assay type: in vivo, Sprague-Dawley rats; conditions: for Endothelium-dependent vasorelaxation induced by acetylcholine, Average / Endothelium-dependent vasorelaxation induced by acetylcholine, Average (TABLE 3): 10 mg/kg/day oral, 8 weeks; for Endothelium-dependent vasorelaxation induced by acetylcholine, Average: acetylcholine 10^−5 M, vs 10^−4 M papaverine; for Endothelium-dependent vasorelaxation induced by acetylcholine, Average (TABLE 3): repeat print of Table 3
Description: as §1, §2
Measurement of endothelium-dependent vasorelaxation was made by the isometric tensiometry (Toda, N. et al., Stroke 24: 1584, 1993) using ink-writing oscillographs (Nippon Kohden Corporation) and a force-displacement transducer (Nippon Kohden Corporation). Data were shown as % maximum relaxation vs. the maximum relaxation induced by 10^−4 M papaverine after aortic sections were partially precontracted with 1-3×10^−7 M 1-phenylephrine. Endothelium-dependent vasorelaxation induced by acetylcholine (10^−5M) and calcium ionophore (A23187, Sigma) (3×10^−7 M) in EC (+) of each of the 4 groups are shown in Tables 3 and 4, respectively.

[5] = biological target: T1, endothelial NOS (eNOS) (Rattus norvegicus, UniProt Q62600); assay: Endothelial NOS activity in thoracic aorta sections; assay type: in vivo, Sprague-Dawley rats; conditions: for eNOS activity, Average: 10 mg/kg/day oral, 8 weeks
T1 construct: After 8 weeks, the thoracic aorta was collected; from tissue; host or cells: thoracic aorta sections with endothelium (EC (+)) of Sprague-Dawley rats
Description: as §1, §2
Measurement of eNOS activity was made according to Rees, D. et al., Hypertension 28: 367, 1996.

[6] = test system: thoracic aorta sections; assay: Endothelium-dependent vasorelaxation induced by calcium ionophore (A23187), isometric tensiometry; assay type: in vivo, Sprague-Dawley rats; conditions: FR group, EC (+), A23187 3×10^−7 M
Description: as §1
Group-to-group statistic analyses were made by one-way ANOVA, with the significance level being p<0.05. Multiple comparison was made by Bonferronl/Dunn, with the significance level being p<0.05. […]

[7] = CTR + BH4 group (starch feed), EC (+)
[8] = FR + BH4 group (fructose-fed, insulin resistant), EC (+)

Compound: C[C@H](O)[C@H](O)C1CNc2nc(N)[nH]c(=O)c2N1 (stereo partly drawn) [(6R,S)-5,6,7,8-tetrahydrobiopterin]
- toxicity (in words) [1]: only slightly toxic

Compound: CC(O)C(O)C1CNc2nc(N)[nH]c(=O)c2N1 [BH4 dihydrochloride, (6R)-L-erythro-5,6,7,8-tetrahydrobiopterin]
- acute toxicity [2]: ≥ 2 g/kg (body weight)

Compound: CC(O)C(O)C1CNc2nc(N)[nH]c(=O)c2N1 [BH4, (6R)-L-erythro-5,6,7,8-tetrahydrobiopterin]
- O2− production level, Average [3, 7]: 189.3 100 cpm/mg dry weight
- change of O2− production level by BH4 administration (in words) ([3]; CTR group): any significant change was not observed
- O2− production level, difference among the 4 groups (in words) ([3]; EC (−) endothelium-separated sections): No significant difference
- O2− production level, Average [3, 8]: 118.0 100 cpm/mg dry weight
- change of O2− production level by BH4 administration (in words) ([3]; FR group, EC (+)): significantly (p<0.001) decreased
- Endothelium-dependent vasorelaxation induced by acetylcholine, Average ([4]; CTR + BH4 group, EC (+)): 92.9 % maximum relaxation
- Endothelium-dependent vasorelaxation induced by acetylcholine, Average (TABLE 3) ([4]; CTR + BH4 group, EC (+)): 92.9 % maximum relaxation
- change of endothelium-dependent vasorelaxation by BH4 administration (in words) ([4]; CTR group): any significant change was not observed
- Endothelium-dependent vasorelaxation induced by acetylcholine, Average ([4]; FR + BH4 group, EC (+)): 82.6 % maximum relaxation
- Endothelium-dependent vasorelaxation induced by acetylcholine, Average (TABLE 3) ([4]; FR + BH4 group, EC (+)): 82.6 % maximum relaxation
- change of acetylcholine-induced endothelium-dependent vasorelaxation by BH4 administration (in words) ([4]; FR group, EC (+)): significantly (p<0.001) recovered
- eNOS activity, Average [5, 7]: 57.0 pmol/min/mg protein
- change of eNOS activity by BH4 administration (in words) ([5]; CTR group): any significant change was not observed
- eNOS activity, Average [5, 8]: 60.2 pmol/min/mg protein
- change of eNOS activity by BH4 administration (in words) ([5]; FR group, EC (+)): significantly (p<0.001) improved
- change of calcium ionophore-induced endothelium-dependent vasorelaxation by BH4 administration (in words) [6]: significantly (p<0.001) recovered
